Measured values: publication PMC11620506, “Inhibition of endocytic uptake of severe acute respiratory syndrome coronavirus 2 and endo-lysosomal acidification by diphenoxylate” (Antimicrobial Agents and Chemotherapy, 2024)

Legend:
[1] = test system: SARS-CoV-2 Omicron, GRA(B.1.1.529), hCoV-19/Korea/KDCA447321/2021; settings: Vero cells
[2] = test system: SARS-CoV-2 Gamma, GR(P.1), hCoV-19/Korea/KDCA95637/2021; settings: for SI, ratio of CC50 to EC50: Gamma, Vero cells
[3] = test system: SARS-CoV-2 Gamma, GR(P.1), hCoV-19/Korea/KDCA95637/2021; test: microbe, parasite or virus in culture; settings: Severe acute respiratory syndrome coronavirus 2, Vero
[4] = test system: SARS-CoV-2 Delta, G(B.1.617.2), hCoV-19/Korea/KDCA119861/2021; settings: Vero cells
[5] = test system: SARS-CoV-2 Alpha, GR(B.1.1.7), hCoV-19/Korea/KDCA51463/2021; test: microbe, parasite or virus in culture; settings: Severe acute respiratory syndrome coronavirus 2, Vero
[6] = test system: SARS-CoV-2 Beta, GH(B.1.351), hCoV-19/Korea/KDCA55905/2021; test: microbe, parasite or virus in culture; settings: Severe acute respiratory syndrome coronavirus 2, Vero
[7] = test system: SARS-CoV-2 Delta, G(B.1.617.2), hCoV-19/Korea/KDCA119861/2021; test: microbe, parasite or virus in culture; settings: Severe acute respiratory syndrome coronavirus 2, Vero
[8] = test system: SARS-CoV-2 Omicron, GRA(B.1.1.529), hCoV-19/Korea/KDCA447321/2021; test: microbe, parasite or virus in culture; settings: Severe acute respiratory syndrome coronavirus 2, Vero
[9] = test system: SARS-CoV-2 Beta, GH(B.1.351), hCoV-19/Korea/KDCA55905/2021; settings: Vero cells
[10] = test system: SARS-CoV-2 Alpha, GR(B.1.1.7), hCoV-19/Korea/KDCA51463/2021; settings: Vero cells

Structure (SMILES)	SI, ratio of CC50 to EC50 [1]	SI, ratio of CC50 to EC50 [2]	EC50 [3] [µM]	SI, ratio of CC50 to EC50 [4]	EC50 [5] [µM]	EC50 [6] [µM]	EC50 [7] [µM]	EC50 [8] [µM]	SI, ratio of CC50 to EC50 [9]	potency relative to remdesivir (times more potent) [2]	SI, ratio of CC50 to EC50 [10]
CCC(CC)COC(=O)[C@H](C)N[P@](=O)(OC[C@H]1O[C@@](C#N)(c2ccc3c(N)ncnn23)[C@H](O)[C@@H]1O)Oc1ccccc1 [RDV, remdesivir]	> 60.7	> 10.3	9.7 ± 0.7	> 23.6	7 ± 1	12.2 ± 0.4	4.2	1.6 ± 0.5	> 8.2	–	–
CCOC(=O)C1(c2ccccc2)CCN(CCC(C#N)(c2ccccc2)c2ccccc2)CC1 [Diphenoxylate, diphenoxylate]	> 31.3	> 68.0	1.5 ± 0.1	> 36.2	1.9 ± 0.2	4.9 ± 0.3	2.8 ± 0.6	3.2 ± 0.6	> 20.4	up to 6.5 times	> 52.5
